Data reported in ChEMBL document CHEMBL1143289, “Potent and selective adenosine A2A receptor antagonists: 1,2,4-Triazolo[1,5-c]pyrimidines” (Bioorg Med Chem Lett, 2009).

Legend:
[1] = molecular target: Adenosine receptor A2a (Homo sapiens, UniProt P29274); experiment: Displacement of [3H]SCH58261 from human adenosine A2A receptor expressed in HEK293 cells; format: cell-based
[2] = species on record: Homo sapiens; experiment: Selectivity for human adenosine A1 receptor over human adenosine A2A receptor
[3] = AUC in rat plasma at 3 mg/kg, po; format: ADME, organism-based; design: dose 3 mg/kg, route oral
[4] = system: Rattus norvegicus; experiment: Inhibition of haloperidol-induced catalepsy in rat at 3 mg/kg, po after 4 hrs; format: functional
[5] = system: Rattus norvegicus; experiment: Inhibition of haloperidol-induced catalepsy in rat at 3 mg/kg, po after 1 hr; format: functional
[6] = system: Rattus norvegicus; experiment: Inhibition of haloperidol-induced catalepsy in rat at 1 mg/kg, po after 1 hr; format: functional
[7] = system: Rattus norvegicus; experiment: Inhibition of haloperidol-induced catalepsy in rat at 1 mg/kg, po after 4 hrs; format: functional
[8] = system: Rattus norvegicus; experiment: Inhibition of haloperidol-induced catalepsy in rat at 0.3 mg/kg, po after 1 hr; design: scale not given: the % may be the effect or the level left
[9] = system: Rattus norvegicus; experiment: Inhibition of haloperidol-induced catalepsy in rat at 0.3 mg/kg, po after 1 hr; format: functional; conditions: read-out: INH
[10] = system: Rattus norvegicus; experiment: Inhibition of haloperidol-induced catalepsy in rat at 0.3 mg/kg, po after 4 hrs; format: functional; conditions: read-out: INH
[11] = system: Rattus norvegicus; experiment: Inhibition of haloperidol-induced catalepsy in rat at 0.1 mg/kg, po after 1 hr; format: functional; conditions: read-out: INH
[12] = system: Rattus norvegicus; experiment: Inhibition of haloperidol-induced catalepsy in rat at 0.1 mg/kg, po after 4 hrs; format: functional

Sequence of Adenosine receptor A2a (P29274 whole entry): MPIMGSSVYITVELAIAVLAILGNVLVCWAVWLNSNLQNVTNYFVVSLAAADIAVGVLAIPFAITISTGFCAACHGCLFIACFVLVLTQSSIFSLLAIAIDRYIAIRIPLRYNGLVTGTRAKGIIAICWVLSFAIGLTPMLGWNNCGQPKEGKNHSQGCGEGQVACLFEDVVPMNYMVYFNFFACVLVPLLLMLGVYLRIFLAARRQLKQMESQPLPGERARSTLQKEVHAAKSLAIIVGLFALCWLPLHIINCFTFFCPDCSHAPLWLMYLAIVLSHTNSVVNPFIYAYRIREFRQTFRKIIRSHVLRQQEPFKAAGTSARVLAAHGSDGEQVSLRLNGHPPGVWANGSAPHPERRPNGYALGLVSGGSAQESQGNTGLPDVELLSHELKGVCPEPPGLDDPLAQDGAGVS

COCCOc1ccc(N2CCN(CCN(C)c3cc4nc(-c5cccc(C#N)c5)nn4c(N)n3)CC2)cc1
Ki [1]: 0.7 nM | Ratio [2]: 1070 | AUC [3]: 546 ng·h/mL | inhibition in vivo at 3 mg/kg [4]: 31% | inhibition in vivo at 3 mg/kg [5]: 29%

Nc1nc(NCCN2CCN(c3ccc(F)cc3F)CC2)cc2nc(-c3ccco3)nn12
Ki [1]: 1.5 nM | Ratio [2]: 262

CN(CCN1CCN(c2ccc(F)cc2F)CC1)c1cc2nc(-c3ccco3)nn2c(N)n1
Ki [1]: 1 nM | Ratio [2]: 1580 | AUC [3]: 53 ng·h/mL | inhibition in vivo at 3 mg/kg [4]: 35% | inhibition in vivo at 1 mg/kg [6]: 50% | inhibition in vivo at 1 mg/kg [7]: 30% | inhibition in vivo at 3 mg/kg [5]: 75%

COc1ccc(CCOc2cc3nc(-c4ccco4)nn3c(N)n2)cc1
Ki [1]: 2.8 nM | Ratio [2]: 58

COCCOc1ccc(N2CCN(CCN(CCOC)c3cc4nc(-c5ccco5)nn4c(N)n3)CC2)cc1
Ki [1]: 0.7 nM | Ratio [2]: 338 | AUC [3]: 355 ng·h/mL | inhibition in vivo at 3 mg/kg [4]: 37% | inhibition in vivo at 1 mg/kg [6]: 29% | inhibition in vivo at 1 mg/kg [7]: 6% | inhibition in vivo at 3 mg/kg [5]: 57%

COCCN(CCN1CCN(c2ccc(F)cc2F)CC1)c1cc2nc(-c3ccco3)nn2c(N)n1
Ki [1]: 0.5 nM | Ratio [2]: 1060 | inhibition in vivo at 3 mg/kg [4]: 57% | inhibition in vivo at 3 mg/kg [5]: 56%

COCCOc1ccc(N2CCN(CCOc3cc4nc(-c5ccc(Cl)o5)nn4c(N)n3)CC2)cc1
Ki [1]: 40 nM | Ratio [2]: 40 | AUC [3]: 6 ng·h/mL

COc1ccc(CCCc2cc3nc(-c4ccco4)nn3c(N)n2)cc1
Ki [1]: 11.5 nM | Ratio [2]: 31

COc1ccc(CCCN(C)c2cc3nc(-c4ccco4)nn3c(N)n2)cc1
Ki [1]: 5.7 nM | Ratio [2]: 76

Cc1nccnc1-c1nc2cc(N(C)CCN3CCN(c4ccc(F)cc4F)CC3)nc(N)n2n1
Ki [1]: 0.3 nM | Ratio [2]: 7370

CN(CCc1ccc(F)cc1)c1cc2nc(-c3ccco3)nn2c(N)n1
Ki [1]: 2 nM | Ratio [2]: 248

CN(CCN1CCN(c2ccc(F)cc2F)CC1)c1cc2nc(-c3cnco3)nn2c(N)n1
Ki [1]: 0.3 nM | Ratio [2]: 7000

COCCOc1ccc(N2CCN(CCOc3cc4nc(-c5ccco5)nn4c(N)n3)CC2)cc1
Ki [1]: 2.8 nM | Ratio [2]: 405 | AUC [3]: 943 ng·h/mL | inhibition in vivo at 1 mg/kg [6]: 25% | inhibition in vivo at 1 mg/kg [7]: 25%

Nc1nc(SCCN2CCN(c3ccc(F)cc3F)CC2)cc2nc(-c3ccco3)nn12
Ki [1]: 1.4 nM | Ratio [2]: 365 | AUC [3]: 229 ng·h/mL | inhibition in vivo at 3 mg/kg [4]: 45% | inhibition in vivo at 1 mg/kg [6]: 50% | inhibition in vivo at 1 mg/kg [7]: 5% | inhibition in vivo at 3 mg/kg [5]: 50%

COc1ccc(CCNc2cc3nc(-c4ccco4)nn3c(N)n2)cc1
Ki [1]: 5.8 nM | Ratio [2]: 20

Nc1nc(OCCN2CCN(c3ccc(F)cc3F)CC2)cc2nc(-c3ccco3)nn12
Ki [1]: 6 nM | Ratio [2]: 275 | AUC [3]: 187 ng·h/mL | inhibition in vivo at 3 mg/kg [4]: 0% | inhibition in vivo at 1 mg/kg [6]: 45% | inhibition in vivo at 3 mg/kg [5]: 25%

CCN(CCN1CCN(c2ccc(F)cc2F)CC1)c1cc2nc(-c3ccco3)nn2c(N)n1
Ki [1]: 0.9 nM | Ratio [2]: 312 | AUC [3]: 50 ng·h/mL

COc1ccc(CN(C)c2cc3nc(-c4ccco4)nn3c(N)n2)cc1
Ki [1]: 46 nM | Ratio [2]: 40

COCCOc1ccc(N2CCN(CCSc3cc4nc(-c5ccco5)nn4c(N)n3)CC2)cc1
Ki [1]: 1.5 nM | Ratio [2]: 965 | AUC [3]: 910 ng·h/mL | inhibition in vivo at 3 mg/kg [4]: 65% | inhibition in vivo at 1 mg/kg [6]: 50% | inhibition in vivo at 1 mg/kg [7]: 15% | inhibition in vivo at 3 mg/kg [5]: 65%

Nc1nc2c(cnn2CCN2CCN(c3ccc(F)cc3F)CC2)c2nc(-c3ccco3)nn12
inhibition in vivo at 1 mg/kg [6]: 75% | inhibition in vivo at 1 mg/kg [7]: 80% | Activity [8]: 75%

COCCOc1ccc(N2CCN(CCN(C)c3cc4nc(-c5ccccc5)nn4c(N)n3)CC2)cc1
Ki [1]: 25 nM | Ratio [2]: 56

CCN(CCc1ccc(F)cc1)c1cc2nc(-c3ccco3)nn2c(N)n1
Ki [1]: 3 nM | Ratio [2]: 525

COc1ccc(CCN(C)c2cc3nc(-c4ccco4)nn3c(N)n2)cc1
Ki [1]: 1.8 nM | Ratio [2]: 473

COCCN(CCc1ccc(F)cc1)c1cc2nc(-c3ccco3)nn2c(N)n1
Ki [1]: 1 nM | Ratio [2]: 566

Nc1nc(N(CCN2CCN(c3ccc(F)cc3F)CC2)CC2CC2)cc2nc(-c3ccco3)nn12
Ki [1]: 0.3 nM | Ratio [2]: 831 | AUC [3]: 17 ng·h/mL | inhibition in vivo at 3 mg/kg [4]: 41% | inhibition in vivo at 1 mg/kg [6]: 40% | inhibition in vivo at 1 mg/kg [7]: 34% | inhibition in vivo at 3 mg/kg [5]: 65%

COCCOc1ccc(N2CCN(CCNc3cc4nc(-c5ccco5)nn4c(N)n3)CC2)cc1
Ki [1]: 9.5 nM | Ratio [2]: 145 | AUC [3]: 103 ng·h/mL

CCN(CCN1CCN(c2ccc(OCCOC)cc2)CC1)c1cc2nc(-c3ccco3)nn2c(N)n1
Ki [1]: 1.5 nM | Ratio [2]: 102 | AUC [3]: 230 ng·h/mL

COCCOc1ccc(N2CCN(CCn3ncc4c3nc(N)n3nc(-c5ccco5)nc43)CC2)cc1 [PRELADENANT]
inhibition in vivo at 1 mg/kg [6]: 77% | inhibition in vivo at 1 mg/kg [7]: 70% | inhibition in vivo at 0.3 mg/kg [9]: 60% | inhibition in vivo at 0.3 mg/kg [10]: 60% | inhibition in vivo at 0.1 mg/kg [11]: 25% | inhibition in vivo at 0.1 mg/kg [12]: 60%

COc1ccc(CCSc2cc3nc(-c4ccco4)nn3c(N)n2)cc1
Ki [1]: 1.6 nM | Ratio [2]: 58

COCCOc1ccc(N2CCN(CCN(CC3CC3)c3cc4nc(-c5ccco5)nn4c(N)n3)CC2)cc1
Ki [1]: 0.8 nM | Ratio [2]: 234 | AUC [3]: 245 ng·h/mL | inhibition in vivo at 3 mg/kg [4]: 77% | inhibition in vivo at 1 mg/kg [6]: 7% | inhibition in vivo at 1 mg/kg [7]: 32% | inhibition in vivo at 3 mg/kg [5]: 65%

COCCOc1ccc(N2CCN(CCN(C)c3cc4nc(-c5ccco5)nn4c(N)n3)CC2)cc1
Ki [1]: 2.5 nM | Ratio [2]: 694 | AUC [3]: 521 ng·h/mL | inhibition in vivo at 1 mg/kg [6]: 15% | inhibition in vivo at 1 mg/kg [7]: 0%

CN(CCN1CCN(c2ccc(F)cc2F)CC1)c1cc2nc(-c3cccc(C#N)c3)nn2c(N)n1
Ki [1]: 1.8 nM | Ratio [2]: 620 | AUC [3]: 1300 ng·h/mL | inhibition in vivo at 3 mg/kg [4]: 14% | inhibition in vivo at 3 mg/kg [5]: 35%
